Literature values as cited in patent US10154669B2, “Improving color and release profile of resin compositions comprising silver nanoparticles” (The Board of Regents of the University of Texas System, priority 2013, dated 2018).

Settings: in water

C=C(C)C(=O)OC [methyl methacrylate]
water solubility: about 1.6 g in 100 g of water
